Source: patent US20170239323A1, “ORITAVANCIN FORMULATIONS” (The Medicines Company, priority 2016, published 2017)

Experiment: Double-blind pharmacokinetic study of a single 1200 mg IV dose of oritavancin in healthy volunteers
Assay type: in vivo
Conditions: human, plasma, healthy subjects, average
Method: A randomized, double-blind, single center cohort study of a new formulation of a single 1200 mg IV dose of oritavancin in healthy volunteers, adjusting infusion time, concentration and reconstitution/administration solutions, of a single 1200 mg intravenous (IV) infusion of oritavancin in healthy adult subjects, was performed. Cohort 1 was administered the current, approved formulation of oritavancin which uses Sterile Water For Injection (SWFI) as the reconstituting agent and D5W for further dilution for a volume of 1000 mL. This infusion was given per the approved label over three hours. Cohort 2 was administered a new formulation for which hydroxypropyl-β-cyclodextrin (HPBCD) was included in the reconstitution diluent and D5W is used for further dilution for a total volume of 250 mL. This formulation was administered over two hours. Cohorts 3, 4, and 5 were administered the same new formulation as Cohort 2 (HPBCD and 250 mL of D5W); however, the infusion was administered over 90, 60, 30 minutes respectively. Two subjects in each of Cohorts 2, 3, 4, and 5 received a placebo infusion of D5W to use as a comparison when reviewing adverse event data. Healthy volunteer subjects providing informed consent and meeting all study eligibility criteria were randomized in the study and received one 1200 mg dose of IV oritavancin or placebo (cohorts 2-5 only).
COHORT 1: At the time of use, each vial was reconstituted by adding 40 mL of Sterile Water or for Injection, (“SWFI,” United States Pharmacopeia) to each 400 mg vial of oritavancin. Vials reconstituted in this manner gave a 10 mg/mL solution. After reconstitution, the compositions were combined and further diluted in 5% dextrose in water (D5W) to provide a total volume of approximately 1000 mL. At each dosing, 1200 mg of oritavancin in 1000 mL total of diluent was administered at a constant rate IV infusion over 3 hours via a single dedicated peripheral IV line (n=6).
(§1) COHORT 2: At the time of use, each vial was reconstituted by adding 4 mL of SWFI and 4 mL of 20% (w/v) HPBCD solution, to each 400 mg vial of oritavancin. Vials reconstituted in this manner provided a 50 mg/mL oritavancin solution. After reconstitution, the compositions were combined and further diluted in 5% dextrose in water (D5W) to provide a total volume of approximately 250 mL. At each dosing, 1200 mg of oritavancin in 250 mL of diluent was administered as a constant rate IV infusion over 2 hours via a single dedicated peripheral IV line (n=8) or a 2 hour placebo IV infusion of 250 mL of D5W (n=2).
as §1, with “3:” for “2:”, “90 minutes” for “2 hours”, “90 minute” for “2 hour”, “placebo” for “placebo IV”
as §1, with “4:” for “2:”, “60 minutes” for “2 hours”, “60 minute” for “2 hour”, “placebo” for “placebo IV”
COHORT 5: At the time of use, each vial was reconstituted by adding 4 mL of SWFI and 4 mL of 20% (w/v) HPBCD solution, to each 400 mg vial of oritavancin. […]

[1] = Cohort 1: 1200 mg IV, approved formulation (SWFI, no HPBCD), D5W 1000 mL, 3 h infusion
[2] = Cohort 2: 1200 mg IV, HPBCD formulation, D5W 250 mL, 2 h infusion
[3] = Cohort 3: 1200 mg IV, HPBCD formulation, D5W 250 mL, 1.5 h infusion
[4] = Cohort 4: 1200 mg IV, HPBCD formulation, D5W 250 mL, 1 h infusion
[5] = Cohort 5: 1200 mg IV, HPBCD formulation, D5W 250 mL, 0.5 h infusion
[6] = Cohort 6: 1200 mg IV, HPBCD formulation, NS 250 mL, 1 h infusion

**Q.** Which AUC(0-inf) [1] does the source give for `CN[C@H](CC(C)C)C(=O)N[C@H]1C(=O)N[C@@H](CC(N)=O)C(=O)N[C@H]2C(=O)N[C@H]3C(=O)N[C@H](C(=O)N[C@H](C(=O)O)c4cc(O)cc(O)c4-c4cc3ccc4O)[C@H](O[C@H]3C[C@](C)(N)[C@@H](O)[C@H](C)O3)c3ccc(c(Cl)c3)Oc3cc2cc(c3O[C@@H]2O[C@H](CO)[C@@H](O)[C@H](O)[C@H]2O[C@H]2C[C@](C)(NCc3ccc(-c4ccc(Cl)cc4)cc3)[C@@H](O)[C@H](C)O2)Oc2ccc(cc2Cl)[C@H]1O` [Oritavancin] here?
**A.** 3680 µg·h/mL

**Q.** What about the Cmax [1] of the same compound?
**A.** 183 µg/mL

**Q.** What about the AUC(0-inf) [2] of the same compound?
**A.** 2710 µg·h/mL

**Q.** And the Cmax [2]?
**A.** 153 µg/mL

**Q.** What about the AUC(0-inf) [3] of the same compound?
**A.** 2850 µg·h/mL

**Q.** What about the Cmax [3] of the same compound?
**A.** 177 µg/mL

**Q.** What about the AUC(0-inf) [4] of the same compound?
**A.** 2870 µg·h/mL

**Q.** And the Cmax [4]?
**A.** 202 µg/mL

**Q.** And the AUC(0-inf) [5]?
**A.** 3180 µg·h/mL

**Q.** And the Cmax [5]?
**A.** 199 µg/mL

**Q.** And the AUC(0-inf) [6]?
**A.** 2960 µg·h/mL

**Q.** And the Cmax [6]?
**A.** 206 µg/mL
